US7915291B2, “Hepatitis C virus inhibitors” (Bristol-Myers Squibb Company, priority 2002, dated 2011)

Columns and labels:
[1] = tested on: HCV replicon in Huh7 cells; assay: HCV replicon cell-based assay; set-up: species or system HCV strain 1B; details: Hepatitis C virus, Huh-7; HCV replicon, Huh7 cells; read-out: EC50 range
[2] = target: HCV NS3/4A protease complex, BMS strain (UniProt P27958, C1454S/C1711G, species not given/STRAIN_BMS); assay: Recombinant HCV NS3/4A protease complex FRET peptide assay (BMS strain); type: biochemical, HCV genotype 1a; details: NS3/4A BMS strain; read-out: IC50 range
Outline: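 Recombinant BMS-strain NS3/4A (His-tagged NS4A with three-lysine tail, E. coli) at 2-3 nM preincubated 1 min with compound, then 2 μM ester-linked NS4A/NS4B-based FRET peptide added. Fluorescence followed in real time ~15 min at 25° C. Percent inhibition from slope of linear fluorescence change versus no-compound control.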

Row | Structure (SMILES) | EC50 [1] [µM] | IC50 [2] [µM]
1 | C=CC1C[C@]1(NC(=O)[C@@H]1C[C@@H](Oc2ccc3nccc(Cl)c3c2)CN1C(=O)[C@@H](NC(=O)OC(C)(C)C)C(C)(C)C)C(=O)NS(=O)(=O)C1CC1 (stereo partly drawn) [Compound 240, BOCNH-P3(L-t-BuGly)-P2[(4R)-(4-chloroquinoline-6-oxo)-S -proline]-P1(1R,2S VinylAcca)-CONHSO2Cyclopropane] | < 0.1 | < 0.1
2 | C=CC1C[C@]1(NC(=O)[C@@H]1C[C@@H](Oc2ccnc3c(F)cccc23)CN1C(=O)[C@@H](NC(=O)OC(C)(C)C)C(C)(C)C)C(=O)NS(=O)(=O)C1CC1 (stereo partly drawn) [Compound 241, BOCNH-P3(L-t-BuGly)-P2[(4R)-(8-fluoroquinoline-4-oxo)-S -proline]-P1(1R,2S VinylAcca)-CONHSO2Cyclopropane] | < 0.1 | < 0.1
3 | C=CC1C[C@]1(NC(=O)[C@@H]1C[C@@H](Oc2cccc3c(Cl)ccnc23)CN1C(=O)[C@@H](NC(=O)OC(C)(C)C)C(C)(C)C)C(=O)NS(=O)(=O)C1CC1 (stereo partly drawn) [Compound 242, BOCNH-P3(L-t-BuGly)-P2[(4R)-(4-chloroquinoline-8-oxo)-S -proline]-P1(1R,2S VinylAcca)-CONHSO2Cyclopropane] | 1 to 10 | < 0.1
4 | C=CC1C[C@]1(NC(=O)[C@@H]1C[C@@H](Oc2nc3ccccc3nc2O)CN1C(=O)[C@@H](NC(=O)OC(C)(C)C)C(C)(C)C)C(=O)NS(=O)(=O)C1CC1 (stereo partly drawn) [Compound 243, BOCNH-P3(L-t-BuGly)-P2[(4R)-(3-hydroxyquinoxaline-2-oxo)-S -proline]-P1(1R,2S VinylAcca)-CONHSO2Cyclopropane] | 10 to 100 | 0.1 to 1
5 | C=CC1C[C@]1(NC(=O)[C@@H]1C[C@@H](Oc2nccc3cc(C(=O)N(C)C)ccc23)CN1C(=O)[C@@H](NC(=O)OC(C)(C)C)C(C)(C)C)C(=O)NS(=O)(=O)C1CC1 (stereo partly drawn) [Compound 244, BOCNH-P3(L-t-BuGly)-P2-[(4R) -(6-carboxylic acid dimethylamideisoquinoline-1-oxo)-S-proline]-P1(1R,2S VinylAcca) -CONHSO2Cyclopropane] | 10 to 100 | < 0.1
6 | C=C[C@@H]1C[C@]1(NC(=O)[C@@H]1C[C@@H](Oc2ncc(C)c3ccccc23)CN1C(=O)[C@@H](NC(=O)OC(C)(C)C)C(C)(C)C)C(=O)NS(=O)(=O)C1CC1 [Compound 250] | < 0.1 | < 0.1
7 | C=C[C@@H]1C[C@]1(NC(=O)[C@@H]1C[C@@H](Oc2ncc(OC)c3ccccc23)CN1C(=O)[C@@H](NC(=O)OC(C)(C)C)C(C)(C)C)C(=O)NS(=O)(=O)C1CC1 [Compound 251] | < 0.1 | < 0.1
8 | C=C[C@@H]1C[C@]1(NC(=O)[C@@H]1C[C@@H](Oc2nccc3c(C)cccc23)CN1C(=O)[C@@H](NC(=O)OC(C)(C)C)C(C)(C)C)C(=O)NS(=O)(=O)C1CC1 [Compound 252] | < 0.1 | < 0.1
9 | C=C[C@@H]1C[C@]1(NC(=O)[C@@H]1C[C@@H](Oc2nccc3c(OC)cccc23)CN1C(=O)[C@@H](NC(=O)OC(C)(C)C)C(C)(C)C)C(=O)NS(=O)(=O)C1CC1 [Compound 253] | < 0.1 | < 0.1
10 | C=C[C@@H]1C[C@]1(NC(=O)[C@@H]1C[C@@H](Oc2nccc3c(Cl)cccc23)CN1C(=O)[C@@H](NC(=O)OC(C)(C)C)C(C)(C)C)C(=O)NS(=O)(=O)C1CC1 [Compound 254] | < 0.1 | < 0.1
11 | C=C[C@@H]1C[C@]1(NC(=O)[C@@H]1C[C@@H](Oc2nccc3c(F)cccc23)CN1C(=O)[C@@H](NC(=O)OC(C)(C)C)C(C)(C)C)C(=O)NS(=O)(=O)C1CC1 [Compound 255] | 0.1 to 1 | < 0.1
12 | C=C[C@@H]1C[C@]1(NC(=O)[C@@H]1C[C@@H](Oc2nccc3ccc(F)cc23)CN1C(=O)[C@@H](NC(=O)OC(C)(C)C)C(C)(C)C)C(=O)NS(=O)(=O)C1CC1 [Compound 257] | < 0.1 | < 0.1
13 | C=C[C@@H]1C[C@]1(NC(=O)[C@@H]1C[C@@H](Oc2nccc3ccc(Cl)cc23)CN1C(=O)[C@@H](NC(=O)OC(C)(C)C)C(C)(C)C)C(=O)NS(=O)(=O)C1CC1 [Compound 258] | < 0.1 | < 0.1
14 | C=C[C@@H]1C[C@]1(NC(=O)[C@@H]1C[C@@H](Oc2nccc3ccc(C)cc23)CN1C(=O)[C@@H](NC(=O)OC(C)(C)C)C(C)(C)C)C(=O)NS(=O)(=O)C1CC1 [Compound 259] | < 0.1 | < 0.1
15 | C=C[C@@H]1C[C@]1(NC(=O)[C@@H]1C[C@@H](Oc2nccc3ccc(OC)cc23)CN1C(=O)[C@@H](NC(=O)OC(C)(C)C)C(C)(C)C)C(=O)NS(=O)(=O)C1CC1 [Compound 260] | 0.1 to 1 | < 0.1
16 | C=C[C@@H]1C[C@]1(NC(=O)[C@@H]1C[C@@H](Oc2nccc3cc(OC)c(F)cc23)CN1C(=O)[C@@H](NC(=O)OC(C)(C)C)C(C)(C)C)C(=O)NS(=O)(=O)C1CC1 [Compound 261] | < 0.1 | < 0.1

Row | Structure (SMILES) | EC50 [1] [µM] | IC50 [2] [µM]
17 | C=C[C@@H]1C[C@]1(NC(=O)[C@@H]1C[C@@H](Oc2cc3c(Cl)nccc3cc2OC)CN1C(=O)[C@@H](NC(=O)OC(C)(C)C)C(C)(C)C)C(=O)NS(=O)(=O)C1CC1 [Compound 262] | < 0.1 | < 0.1
18 | C=C[C@@H]1C[C@]1(NC(=O)[C@@H]1C[C@@H](Oc2nccc3cccc(C)c23)CN1C(=O)[C@@H](NC(=O)OC(C)(C)C)C(C)(C)C)C(=O)NS(=O)(=O)C1CC1 [Compound 263] | 0.1 to 1 | 0.1 to 1
19 | C=C[C@@H]1C[C@]1(NC(=O)[C@@H]1C[C@@H](Oc2nccc3cccc(OC)c23)CN1C(=O)[C@@H](NC(=O)OC(C)(C)C)C(C)(C)C)C(=O)NS(=O)(=O)C1CC1 [Compound 264] | 1 to 10 | 0.1 to 1
20 | C=C[C@@H]1C[C@]1(NC(=O)[C@@H]1C[C@@H](Oc2nccc3c4c(ccc23)CCO4)CN1C(=O)[C@@H](NC(=O)OC(C)(C)C)C(C)(C)C)C(=O)NS(=O)(=O)C1CC1 [Compound 265] | < 0.1 | < 0.1
21 | C=C[C@@H]1C[C@]1(NC(=O)[C@@H]1C[C@@H](Oc2nccc3c2ccc2ccoc23)CN1C(=O)[C@@H](NC(=O)OC(C)(C)C)C(C)(C)C)C(=O)NS(=O)(=O)C1CC1 [Compound 266] | < 0.1 | < 0.1
22 | C=C[C@@H]1C[C@]1(NC(=O)[C@@H]1C[C@@H](Oc2nccc3c4c(ccc23)OCC4)CN1C(=O)[C@@H](NC(=O)OC(C)(C)C)C(C)(C)C)C(=O)NS(=O)(=O)C1CC1 [Compound 267] | < 0.1 | < 0.1
23 | C=C[C@@H]1C[C@]1(NC(=O)[C@@H]1C[C@@H](Oc2nccc3c2ccc2occc23)CN1C(=O)[C@@H](NC(=O)OC(C)(C)C)C(C)(C)C)C(=O)NS(=O)(=O)C1CC1 [Compound 268] | < 0.1 | < 0.1
24 | C=C[C@@H]1C[C@]1(NC(=O)[C@@H]1C[C@@H](Oc2nccc3c(OC(F)(F)F)cccc23)CN1C(=O)[C@@H](NC(=O)OC(C)(C)C)C(C)(C)C)C(=O)NS(=O)(=O)C1CC1 [Compound 269] | 0.1 to 1 | < 0.1
25 | C=C[C@@H]1C[C@]1(NC(=O)[C@@H]1C[C@@H](Oc2nccc3c(C(F)(F)F)cccc23)CN1C(=O)[C@@H](NC(=O)OC(C)(C)C)C(C)(C)C)C(=O)NS(=O)(=O)C1CC1 [Compound 270] | 0.1 to 1 | < 0.1
26 | C=C[C@@H]1C[C@]1(NC(=O)[C@@H]1C[C@@H](Oc2nccc3c(N4CCOCC4)cccc23)CN1C(=O)[C@@H](NC(=O)OC(C)(C)C)C(C)(C)C)C(=O)NS(=O)(=O)C1CC1 [Compound 271] | 0.1 to 1 | < 0.1
27 | C=C[C@@H]1C[C@]1(NC(=O)[C@@H]1C[C@@H](Oc2nccc3c(OC)c(OC)ccc23)CN1C(=O)[C@@H](NC(=O)OC(C)(C)C)C(C)(C)C)C(=O)NS(=O)(=O)C1CC1 [Compound 272] | < 0.1 | < 0.1
28 | C=C[C@@H]1C[C@]1(NC(=O)[C@@H]1C[C@@H](Oc2nccc3cc(OC)c(Cl)cc23)CN1C(=O)[C@@H](NC(=O)OC(C)(C)C)C(C)(C)C)C(=O)NS(=O)(=O)C1CC1 [Compound 273] | < 0.1 | < 0.1
29 | C=C[C@@H]1C[C@]1(NC(=O)[C@@H]1C[C@@H](Oc2nccc3c(F)c(OC)ccc23)CN1C(=O)[C@@H](NC(=O)OC(C)(C)C)C(C)(C)C)C(=O)NS(=O)(=O)C1CC1 [Compound 274] | 0.1 to 1 | < 0.1
30 | C=C[C@@H]1C[C@]1(NC(=O)[C@@H]1C[C@@H](Oc2nccc3c(Cl)c(OC)ccc23)CN1C(=O)[C@@H](NC(=O)OC(C)(C)C)C(C)(C)C)C(=O)NS(=O)(=O)C1CC1 [Compound 275] | < 0.1 | < 0.1
31 | C=C[C@@H]1C[C@]1(NC(=O)[C@@H]1C[C@@H](Oc2nccc3c(OC)c(Cl)ccc23)CN1C(=O)[C@@H](NC(=O)OC(C)(C)C)C(C)(C)C)C(=O)NS(=O)(=O)C1CC1 [Compound 276] | < 0.1 | < 0.1
32 | C=C[C@@H]1C[C@]1(NC(=O)[C@@H]1C[C@@H](Oc2ncc(Cl)c3cc(OC)ccc23)CN1C(=O)[C@@H](NC(=O)OC(C)(C)C)C(C)(C)C)C(=O)NS(=O)(=O)C1CC1 [Compound 278] | < 0.1 | < 0.1
